Results published in patent US4564614A, “Antiinflammatory methods” (priority 1985, dated 1986).

Columns and labels:
[1] = system: piroxicam-induced gastric lesions; assay: animal or person; format: in vivo, rat (CD strain, Sprague-Dawley); conditions: for Lesions/Rat (mean +/- SE): with 120 mg/kg ethanolamine salt of piroxicam; for Significance p < 0.05: Student's two-tailed t test vs piroxicam-only control; for reduction of piroxicam-induced gastric lesions: healthy fasted rat
Protocol: Adult male "specific pathogen free" rats weighing 140-160 grams of the CD strain (Sprague-Dawley) were obtained from Charles River Breeding Laboratories (Kingston, N.Y.) The animals were acclimated for approximately one week and tested when they reached a body weight of 200-225 grams. The rats were fasted for 16 hours and randomized into groups consisting of 8 to 20 animals which were normalized with regard to their average body weight.
Gastric ulcers were induced in the animals by orally dosing them with a single 120 mg/kg dose of piroxicam (ethanolamine salt) in 2 ml. of aqueous 0.1% methylcellulose (pH=6.8). Those animals receiving a second medicinal agent separately received the second drug in an additional 2 ml. of the same medium at about the same time. Six and one-half hours later, the animals were sacrificed by cervical dislocation and autopsied. The stomachs were surgically removed, dissected along the greater curvature and rinsed with cold water. The stomachs were individually scored for both linear and punctuate lesions. The total number of lesions was used for scoring purposes. The data obtained from each group of rats was analyzed after calculation of the mean number ± the standard error of total gastric lesions. The values obtained were also compared to the controls which received only piroxicam by the two-tailed Student's T-Test for non-paired data.

[2] = 50-150 mg/day for 3 months, rheumatoid arthritis patients; cited from earlier work
rheumatoid arthritis = conditions: 50-150 mg/day for 3 months, rheumatoid arthritis patients, most taking aspirin; cited from earlier work
ulcers = conditions: 1.1 mg/kg, injection; cited from earlier work
gastric ulcers = conditions: subcutaneous injection; cited from earlier work

Cc1ncc(CO)c(CO)c1O.Cl [Pyridoxine Hydrochloride, pyridoxine hydrochloride]
Lesions/Rat (mean +/- SE) ([1]; 3.3 mg/kg oral, 10 rats): 7.0 (1.1)
Lesions/Rat (mean +/- SE) ([1]; 10 mg/kg oral, 30 rats): 4.2 (1.2)
Lesions/Rat (mean +/- SE) ([1]; 33 mg/kg oral, 50 rats): 3.9 (1.1)
Significance p < 0.05 ([1]; 33 mg/kg oral): + (p < 0.05)
Lesions/Rat (mean +/- SE) ([1]; 100 mg/kg oral, 20 rats): 2.7 (1.1)
Significance p < 0.05 ([1]; 100 mg/kg oral): + (p < 0.05)
ED50 ([1]; Rattus norvegicus, 6.5 h, oral, linear regression analysis, 120 mg/kg ethanolamine salt of piroxicam, read-out: ED50 (dose required to inhibit 50% of control gastric lesion)): 33 mg/kg
increase in plasma levels of pyridoxal phosphate [2]: 2-5 fold
clinical improvements in the disease (rheumatoid arthritis): no clinical improvements

Cc1ncc(CO)c(CO)c1O [Pyridoxine, pyridoxine]
frequency of ulcers (ulcers): reduce the frequency of ulcers
healing of gastric ulcers (gastric ulcers): not promote the healing
pain of gastric ulcers (gastric ulcers): alleviate the pain

CC(=O)Nc1ccc(O)cc1 [acetaminophen]
reduction of piroxicam-induced gastric lesions [1]: significantly reduce

CN1C(=O)CN=C(c2ccccc2)c2cc(Cl)ccc21 [diazepam]
reduction of piroxicam-induced gastric lesions [1]: significantly reduce

CN(C)CCC=C1c2ccccc2COc2ccccc21 [doxepin]
reduction of piroxicam-induced gastric lesions [1]: significantly reduce

c1ccc(CCNc2nc(-c3ccccc3)cs2)cc1 [fanetizole]
reduction of piroxicam-induced gastric lesions [1]: significantly reduce

CC(C)(C)NCC(O)c1ccc(O)c(CO)n1 (centres unmarked) [pirbuterol]
reduction of piroxicam-induced gastric lesions [1]: significantly reduce
